{"source": "ChEMBL document CHEMBL5113408", "about": "“Design, synthesis and antitumour activity of novel 5(6)-amino-benzimidazolequinones containing a fused morpholine” (Eur J Med Chem, 2022)", "key": {"HGC-27 [1]": {"system": "HGC-27", "assay": "Induction of apoptosis in human HGC-27 cells incubated for 48 hrs in presence of NAC by Annexin V-FITC and PI staining based flow cytometry analysis", "format": "functional"}, "HGC-27 [2]": {"system": "HGC-27", "assay": "Induction of DNA damage in human HGC-27 cells assessed as increase in gamma-H2AX generation incubated for 48 hrs by Western blot analysis", "format": "functional, cell-based", "settings": "DDE = dose-dependent effect"}, "HGC-27 [3]": {"system": "HGC-27", "assay": "Antiproliferative activity against human HGC-27 cells assessed as inhibition of cell growth incubated for 24 to 72 hrs by SRB assay", "format": "functional, cell-based", "settings": "dose 0.25-8 µM, time 24-72 hrs, DDE = dose-dependent effect"}, "MGC-803 [4]": {"system": "MGC-803", "assay": "Induction of DNA damage in human MGC-803 cells assessed as increase in gamma-H2AX generation incubated for 48 hrs by Western blot analysis", "format": "functional, cell-based", "settings": "DDE = dose-dependent effect"}, "[5]": {"assay": "Toxicity in BALB/c mouse xenografted with human MGC-803 cells assessed as effect on kidney at 10 to 20 mg/kg, ip administered once every two days measured after 15 days by H and E staining based assay", "format": "organism-based", "settings": "in vivo, 360 h, dose 10-20 mg/kg, time 15 day"}, "MGC-803 [6]": {"system": "MGC-803", "assay": "Induction of cell cycle arrest in human MGC-803 cells assessed as accumulation of cells at G2/M phase at 4 uM incubated for 36 hrs by PI staining based flow cytometry analysis (reference value: 20.5%)", "format": "functional"}, "HGC-27 [7]": {"system": "HGC-27", "assay": "Antiproliferative activity against human HGC-27 cells assessed as inhibition of cell growth at 0.25 to 8 uM by SRB assay", "format": "functional, cell-based", "settings": "dose 0.25-8 µM, time 24-72 hrs, TDE = time-dependent effect"}, "MGC-803 [8]": {"system": "MGC-803", "assay": "Induction of cell cycle arrest in human MGC-803 cells assessed as accumulation of cells at G1 phase at 2 uM incubated for 36 hrs by PI staining based flow cytometry analysis (reference value: 45.8%)", "format": "functional"}, "[9]": {"assay": "Toxicity in BALB/c mouse xenografted with human MGC-803 cells assessed as effect on ALT level at 10 to 20 mg/kg, ip administered once every two days", "format": "organism-based", "settings": "in vivo, dose 10-20 mg/kg"}, "MGC-803 [10]": {"system": "MGC-803", "assay": "Induction of DNA damage in human MGC-803 cells assessed as increase in gamma-H2AX generation incubated for 24 hrs by immunofluorescence analysis", "format": "functional, cell-based"}, "MGC-803 [11]": {"system": "MGC-803", "assay": "Activation of ROS/JNK signalling in human MGC-803 cells assessed as increase in p-JNK level at 1 to 4 uM by Western blot analysis", "format": "cell-based", "settings": "filed as activator, dose 1-4 µM"}, "MCF7": {"system": "MCF7", "assay": "Antiproliferative activity against human MCF7 cells assessed as inhibition of cell growth by SRB assay", "format": "functional, cell-based"}, "MGC-803 [12]": {"system": "MGC-803", "assay": "Induction of apoptosis in human MGC-803 cells assessed as increase in cleaved caspase 7 protein expression level at 1 to 4 uM incubated for 48 hrs by Western blot analysis", "format": "functional, cell-based", "settings": "dose 1-4 µM"}, "MGC-803 [13]": {"system": "MGC-803", "assay": "Antitumor activity against human MGC-803 cells xenografted with BALB/c mouse assessed as reduction in tumor weight at 10 to 20 mg/kg, ip administered once every two days", "format": "functional, organism-based", "settings": "dose 10-20 mg/kg"}, "MGC-803 [14]": {"system": "MGC-803", "assay": "Antiproliferative activity against human MGC-803 cells assessed as inhibition of cell growth by SRB assay", "format": "functional, cell-based"}, "HGC-27 [15]": {"system": "HGC-27", "assay": "Induction of mitochondrial membrane depolarization in human HGC-27 cells incubated for 48 hrs by flow cytometry analysis", "format": "functional, cell-based", "settings": "dose 1-4 µM, DDE = dose-dependent effect"}, "HGC-27 [16]": {"system": "HGC-27", "assay": "Induction of cell cycle arrest in human HGC-27 cells assessed as decrease in cyclin-B1 level at 1 to 4 uM by Western blot analysis", "format": "functional, cell-based", "settings": "dose 1-4 µM"}, "HGC-27 [17]": {"system": "HGC-27", "assay": "Induction of DNA damage in human HGC-27 cells assessed as increase in gamma-H2AX generation incubated for 24 hrs by immunofluorescence analysis", "format": "functional, cell-based"}, "MGC-803 [18]": {"system": "MGC-803", "assay": "Induction of apoptosis in human MGC-803 cells incubated for 48 hrs by Annexin-V FITC staining based flow cytometry analysis", "format": "functional, cell-based", "settings": "dose 1-4 µM, DDE = dose-dependent effect"}, "HGC-27 [19]": {"system": "HGC-27", "assay": "Induction of cell cycle arrest in human HGC-27 cells assessed as accumulation of cells at G2/M phase at 2 uM incubated for 36 hrs by PI staining based flow cytometry analysis (reference value: 26.2%)", "format": "functional"}}, "note": "Active and inactive are the calls of the source. No cut-off for these calls is given here.", "data": [{"smiles": "Cc1ccc(NC2=CC(=O)c3nc4n(c3C2=O)[C@H]2OC[C@@H](O)[C@H]2OC4)cc1C", "values": [{"measurement": "Activity", "setting": "HGC-27 [1]", "result": 1.4, "unit": "%"}, {"measurement": "Activity", "setting": "HGC-27 [2]", "result": "Dde"}, {"measurement": "Activity", "setting": "HGC-27 [3]", "result": "Dde"}, {"measurement": "Activity", "setting": "MGC-803 [4]", "result": "Dde"}, {"measurement": "Activity", "setting": "[5]", "result": "Non-Toxic"}, {"measurement": "Activity", "setting": "MGC-803 [6]", "result": 28.2, "unit": "%"}, {"measurement": "Activity", "setting": "HGC-27 [7]", "result": "Tde"}, {"measurement": "Activity", "setting": "MGC-803 [8]", "result": 29.2, "unit": "%"}, {"measurement": "Activity", "setting": "[9]", "result": "Non-Toxic"}, {"measurement": "Activity", "setting": "MGC-803 [10]", "result": "Active"}, {"measurement": "Activity", "setting": "MGC-803 [11]", "result": "Active"}, {"measurement": "IC50", "setting": "MCF7", "result": 2080, "unit": "nM"}, {"measurement": "Activity", "setting": "MGC-803 [12]", "result": "Active"}, {"measurement": "Activity", "setting": "MGC-803 [13]", "result": "Active"}, {"measurement": "IC50", "setting": "MGC-803 [14]", "result": 860, "unit": "nM"}, {"measurement": "Activity", "setting": "HGC-27 [15]", "result": "Dde"}, {"measurement": "Activity", "setting": "HGC-27 [16]", "result": "Active"}, {"measurement": "Activity", "setting": "HGC-27 [17]", "result": "Active"}, {"measurement": "Activity", "setting": "MGC-803 [18]", "result": "Dde"}, {"measurement": "Activity", "setting": "HGC-27 [19]", "result": 32.3, "unit": "%"}]}]}
